Like-named read-outs stand apart in the source and are kept apart here.
Key:
[1] = Test 3: in-vivo pharmacokinetics test in mice (plasma, LC/MS/MS); details: mouse, male ICR mice; for clearance: read-out: Clearance rate CLz
Experimental: Test 3: In-Vivo Pharmacokinetics Test
Mice were respectively administrated with the compound of the present disclosure by intravenous injection or intragastric administration, and the concentration of the drug in the plasma at different time points was determined by LC/MS/MS to explore pharmacokinetic behavior of the compound of the present disclosure in the mouse so as to evaluate the pharmacokinetic characteristics of the compound.
Experimental animals: healthy adult male ICR mice (weight: 25 to 40 g, 12 mice, mice in the intravenous injection group had free access to water and food, and mice in the intragastric administration group fasted overnight and had free access to water and food 4 h after administration), provided by Beijing Vital River Laboratory Animal Co., Ltd.
Administration method and dosage: before administration, animals that met the experimental requirements were selected, weighed, and marked. The ICR mice were subjected to tail vein administration (2 mg/kg, 5% DMSO, pH=4.5, 20% Captisol) or intragastric administration (10 mg/kg, 5% DMSO, pH=4.5, 20% Captisol).
Blood sample collection: before blood sample collection, each mouse was tied, and about 100 μL of blood was collected from each mouse subjected to administration at a preset blood collection time point through the jugular vein (for the mice subjected to intravenous administration: blood was collected from each mouse at a total of 9 time points, i.e., 0.083 h, 0.25 h, 0.5 h, 1 h, 2 h, 4 h, 6 h, 7.5 h, and 24 h after administration; and for the mice subjected to intragastric administration: blood was collected from each mouse at a total of 9 time points, i.e., 0.083 h, 0.25 h, 0.5 h, 1 h, 2 h, 4 h, 6 h, 7.5 h, and 24 h after administration). The blood was transferred to a test tube (1.5 mL) containing K2EDTA and centrifuged for 4 min (8,000 rpm, 4° C.) to separate out plasma, and the whole process was completed within 15 min after blood collection. All samples were stored in a refrigerator at −20° C. before sample analysis. The concentration of the drug was determined by LC/MS/MS.
Pharmacokinetic property parameters of the compounds of some examples of the present disclosure in the mice under the conditions of same dosage and intravenous administration are shown in Table 3:
Pharmacokinetic property parameters of the compounds of some examples of the present disclosure in the mice under the conditions of same dosage and intragastric administration are shown in Table 4: […]

A2A receptor = target: T1, A2A receptor (Homo sapiens, UniProt P29274); test: Test 1: inhibitory activity to the A2A receptor, cAMP HTRF in CHO-K1/ADORA2A/Gα15 cells, NECA 50 nM; format: cell-based
T1 construct: host or cells: CHO-K1 (co-expressing Gα15)
Experimental: (§1) Test 1: Inhibitory Activities to the A2A Receptor and the A2B Receptor CHO-K1/ADORA2A/Gα15 (GenScript, M00246) and CHO-K1/ADORA2B/Gα15 (GenScript, M00329) cells were cultured in a Ham's F-12 (Gibco, 31765092) medium containing 10% FBS, Zeocin (200 ug/mL), and Hygromycin B (100 ug/mL), or containing 10% FBS, G418 (400 ug/mL), and Hygromycin B (100 ug/mL) under culture conditions specified in the corresponding instruction. Screening procedure was as follows: 1. The cell density was adjusted with a serum-free medium to 6×10^5 cells/mL. 2. 5 uL of cell solution, 2.5 μL of NECA (Sigma, 119140-10MG), and 2.5 μL of compound solution were placed into each well of a 384-well plate (Greiner Bio-One, 784075) in sequence, the final concentration of NECA was 50 nM (CHO-K1/ADORA2A) or 10 nM (CHO-K1/ADORA2B), and the compound solution was subjected to 3-fold dilution from the final concentration of 3 uM. 3. The cells were placed still and cultured in an incubator at 37° C. for 30 min. 4. 5 μL of cAMP-d2 and 5 μL of cAMP-ab (Cisbio, 62AM4PEB) were added in sequence. 5. The 384-well plate was placed in dark at the room temperature for 1 h. 6. The plate was read (Victor X5, PerkinElmer), data were analyzed by XLfit nonlinear regression, and IC50 values of the compounds were calculated.

A2B receptor = target: T2, A2B receptor (Homo sapiens, UniProt P29275); test: Test 1: inhibitory activity to the A2B receptor, cAMP HTRF in CHO-K1/ADORA2B/Gα15 cells, NECA 10 nM; format: cell-based
T2 construct: host or cells: CHO-K1 (co-expressing Gα15)
T2 sequence (P29275 1-332): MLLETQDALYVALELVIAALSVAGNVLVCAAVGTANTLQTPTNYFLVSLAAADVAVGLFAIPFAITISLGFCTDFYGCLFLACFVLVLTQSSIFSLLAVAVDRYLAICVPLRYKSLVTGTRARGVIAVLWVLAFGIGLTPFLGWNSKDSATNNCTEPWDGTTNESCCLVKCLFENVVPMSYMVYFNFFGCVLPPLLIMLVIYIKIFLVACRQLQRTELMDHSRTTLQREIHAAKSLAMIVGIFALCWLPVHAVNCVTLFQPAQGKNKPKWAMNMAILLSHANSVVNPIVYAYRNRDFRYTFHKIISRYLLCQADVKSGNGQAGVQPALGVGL
Experimental: as §1

[2] = intravenous (tail vein) 2 mg/kg, read-out: Area under the curve AUC0-t
[3] = intravenous (tail vein) 2 mg/kg
[4] = po, intragastric administration 10 mg/kg
[5] = po, intragastric administration 10 mg/kg, read-out: Area under the curve AUClast

T1 sequence (P29274 whole entry): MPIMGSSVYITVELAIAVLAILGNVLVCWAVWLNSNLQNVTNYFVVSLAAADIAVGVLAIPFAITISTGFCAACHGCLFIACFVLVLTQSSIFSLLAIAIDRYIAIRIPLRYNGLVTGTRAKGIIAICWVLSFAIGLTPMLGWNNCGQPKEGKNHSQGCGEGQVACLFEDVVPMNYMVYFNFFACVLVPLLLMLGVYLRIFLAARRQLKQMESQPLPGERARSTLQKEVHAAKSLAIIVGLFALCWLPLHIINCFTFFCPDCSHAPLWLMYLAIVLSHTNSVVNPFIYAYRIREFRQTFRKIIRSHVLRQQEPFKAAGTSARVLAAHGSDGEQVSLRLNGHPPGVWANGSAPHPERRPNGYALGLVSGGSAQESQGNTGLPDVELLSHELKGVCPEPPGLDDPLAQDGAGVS

SMILES | AUC(0-t) [1, 2] [ng·h/mL] | clearance [1, 3] [mL/min/kg] | Cmax [1, 4] [ng/mL] | AUC(0-t) [1, 5] [ng·h/mL] | IC50 (A2A receptor) [µM] | IC50 (A2B receptor) [µM]
Cc1c(C#N)cccc1-c1nc(N)c(Cl)c(-c2cn(Cc3cccc(C(C)(C)O)n3)nn2)n1 [Compound L-3] | 3600 | 9.12 | 15900 | 22200 | < 0.001 | 0.004
Cc1c(C#N)cccc1-c1nc(N)c(Cl)c(-c2cn(Cc3ccn(C)n3)nn2)n1 [Compound L-9] | 4680 | 6.97 | 6790 | 23800 | 0.001 | 0.001
Cc1c(C#N)cccc1-c1nc(N)c(Cl)c(-c2cn(Cc3cc(C(C)(C)O)n(C)n3)nn2)n1 [Compound L-10] | 2740 | 12.1 | 12600 | 18000 | 0.004 | 0.001
Cc1c(C#N)cccc1-c1nc(N)c(F)c(-c2cn(Cc3ccn(C4CC4)n3)nn2)n1 [Compound L-32] | 2510 | 13.3 | 8980 | 14800 | < 0.001 | 0.001
Cc1c(C#N)cccc1-c1nc(N)c(F)c(-c2cn(Cc3cccc(C4(O)COC4)n3)nn2)n1 [Compound L-53] | – | – | – | – | 0.002 | 0.004
Cc1c(C#N)cccc1-c1nc(N)c(F)c(-c2cn(Cc3cccc(C(C)(C)C#N)n3)nn2)n1 [Compound L-54] | – | – | – | – | 0.003 | 0.004
Cc1c(C#N)cccc1-c1nc(N)c(F)c(-c2cn(Cc3cccc(C(N)=O)n3)nn2)n1 [Compound L-56] | – | – | – | – | 0.007 | 0.024
Cc1c(C#N)cccc1-c1nc(N)nc(-c2cn(Cc3ccn(C)n3)nn2)c1F [Compound L-59] | – | – | – | – | 0.063 | 0.049
COCc1cccc(Cn2cc(-c3nc(N)nc(-c4cccc(C#N)c4C)c3F)nn2)n1 [Compound L-60] | – | – | – | – | 0.079 | 0.073
COCc1cccc(Cn2cc(-c3nc(-c4cccc(C#N)c4C)nc(N)c3F)nn2)n1 [Compound L-62] | – | – | – | – | 0.001 | 0.003
Cc1c(C#N)cccc1-c1nc(N)c(F)c(-c2cn(Cc3cccc(C(C)(C)CO)n3)nn2)n1 [Compound L-63] | – | – | – | – | 0.001 | 0.005
Cc1c(C#N)cccc1-c1nc(N)c(F)c(-c2cn(Cc3cccc(C4(O)CCC4)n3)nn2)n1 [Compound L-64] | – | – | – | – | 0.001 | 0.004
Cc1c(C#N)cccc1-c1nc(N)c(F)c(-c2cn(Cc3cccc(N4CCC(O)C4)n3)nn2)n1 [Compound L-65] | – | – | – | – | 0.005 | 0.022
Cc1c(C#N)cccc1-c1nc(N)c(F)c(-c2cn(Cc3cccc(C4(O)CCCC4)n3)nn2)n1 [Compound L-66] | – | – | – | – | 0.003 | 0.011
Cc1c(C#N)cccc1-c1nc(N)c(F)c(-c2cn(Cc3ccn(C)n3)nn2)n1 [Compound L-67] | 2310 | 14.2 | 5720 | 17300 | 0.003 | 0.007
Cc1c(C#N)cccc1-c1nc(N)c(F)c(-c2cn(Cc3cccc(C(C)C)n3)nn2)n1 [Compound L-68] | – | – | – | – | 0.002 | 0.011
Cc1c(C#N)cccc1-c1nc(N)c(F)c(-c2cn(Cc3cccc(N4CCOCC4)n3)nn2)n1 [Compound L-69] | – | – | – | – | 0.005 | 0.02
Cc1c(C#N)cccc1-c1nc(N)c(F)c(-c2cn(Cc3cccc(CN4CCOCC4)n3)nn2)n1 [Compound L-70] | – | – | – | – | 0.002 | 0.013
